Experiment [1] relates to C. albicans MMX 2000 ATCC 10231. Nature of the experiment: MIC assay (CLSI microdilution). Format: cell-based. Particulars: Candida albicans, ATCC10231, Without Tween-80; read-out: MIC.
Experiment [2] has as its system C. parapsilosis MMX 2323 ATCC 22019. Particulars: Without Tween-80; quality control range; cited from earlier work.
The test system of experiment [3] is A. fumigatus MMX 5280 ATCC MYA-3626. Particulars: Without Tween-80, quality control range, cited from earlier work.
In experiment [4] the test system is C. neoformans MMX 0634 ATCC 90112. Nature of the experiment: MIC assay (CLSI microdilution). The class given is cell-based. (In general: Dilution methods test growth across graded concentrations, often in twofold steps.)
In experiment [5] the test system is C. albicans MMX 2000 ATCC 10231. Briefly: MIC assay (CLSI microdilution). Format: cell-based. Particulars: Candida albicans, ATCC10231, RPMI plus 0.002% Tween-80; read-out: MIC.
The test system of experiment [6] is A. fumigatus MMX 5280 ATCC MYA-3626. Briefly: MIC/MEC assay (CLSI microdilution). The class given is cell-based, Aspergillus fumigatus. A digest of the protocol: (§1)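 Test agents were assayed by CLSI broth microdilution in Tween-80-supplemented (0.002%) RPMI-1640 against spore inocula of approximately 0.2-2.5×10^4 CFU/mL. Strain MMX 5280 was run both with and without Tween-80.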

Experiment [7] has as its system Coccidiodes immitus. Briefly: organism not typed. The class given is cell-based.
For experiment [8], the system named is A. fumigatus MMX 6782 ATCC 13073. Nature of the experiment: MIC/MEC assay (CLSI microdilution). The class given is cell-based. A digest of the protocol:
as §1

In experiment [9] the test system is A. fumigatus MMX 6781 ATCC MYA-4609. Nature of the experiment: MIC/MEC assay (CLSI microdilution). The class given is cell-based. To be noted: Aspergillus fumigatus. A digest of the protocol:
as §1

In experiment [10] the test system is A. flavus MMX 5948. Nature of the experiment: MIC/MEC assay (CLSI microdilution). The class given is cell-based. To be noted: Aspergillus flavus, MMX5948, 48 h, RPMI plus 0.002% Tween-80. Summed up: as §1
Experiment [11] relates to A. niger MMX 0624 ATCC 16888. Nature of the experiment: MIC/MEC assay (CLSI microdilution). The class given is cell-based. A digest of the protocol: as §1
The test system of experiment [12] is A. fumigatus MMX 5944. Briefly: MIC/MEC assay (CLSI microdilution). Format: cell-based. A digest of the protocol:
as §1

Experiment [13] relates to A. fumigatus from Aureogen. Briefly: MIC/MEC assay (CLSI microdilution). Format: cell-based. Summed up:
as §1

The subject of experiment [14] is C. parapsilosis MMX 2323 ATCC 22019. Briefly: MIC assay (CLSI microdilution). Format: cell-based, Candida parapsilosis. Particulars: read-out: MIC. Summed up: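 Broth microdilution MIC testing of Candida parapsilosis ATCC 22019 followed CLSI methods in RPMI-1640, with or without 0.002% Tween-80. Yeast grown 48 hours at 35° C on Sabouraud dextrose agar was suspended to a 0.5 McFarland standard and diluted 1:100 to roughly 0.5-2.5×10^3 CFU/mL. The MIC was the lowest concentration preventing visible growth.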

[15] abbreviates: Cryptococcus neoformans, ATCC90112, 72 h, 72 hour, RPMI plus 0.002% Tween-80, read-out: MIC.
Where [16] appears, read: Cryptococcus neoformans, ATCC90112, RPMI plus 0.002% Tween-80, read-out: MIC.
Where [17] appears, read: RPMI plus 0.002% Tween-80, 48 hr.
Where [18] appears, read: Aspergillus fumigatus, 48 h, RPMI plus 0.002% Tween-80, read-out: MIC.

Results on 2 compounds are retold here after patent US11066447B2, “Aureobasidium derivatives and methods of synthesis” (AureoGen Biosciences, Inc., priority 2016, dated 2021).

Values after ≈ are worked out from the molar mass of the structure shown. Where two headings read alike, the source gives them in different places. Numbered stars: 1 amine (or outer) side, 2 acyl side, 3 side chain; on linkers, the order of the positions; unused ones are H or OH. Square brackets hold non-standard residues; d marks the D form. Peptide text beside a SMILES is read from it. X1 = CC(C)N1CCN(c2ccc(-c3cccc(C[C@@H](C(=O)[*:2])N(C)[*:1])c3)cc2)CC1; Hmp(2R,3S) = CC[C@H](C)[C@@H](O)C(=O)O; NMeVal(β-OH) = CN[C@H](C(=O)O)C(C)(C)O; NMeV = CN[C@H](C(=O)O)C(C)C

What is called MIC is the lowest concentration that inhibits growth of the organism. Turning to `C[C@@H]1[C@H](O)[C@@H](C)/C=C/C=C/C=C/C=C/C=C/C=C/C=C/[C@H](O[C@@H]2O[C@H](C)[C@@H](O)[C@H](N)[C@@H]2O)C[C@@H]2O[C@](O)(C[C@@H](O)C[C@@H](O)[C@H](O)CC[C@@H](O)C[C@@H](O)CC(=O)O[C@H]1C)C[C@H](O)[C@H]2C(=O)O` [Amphotericin B, reference compound], the minimum inhibitory concentration (MIC) in experiment [1] was at most 0.06 µg/mL; in [4] (setting [15]), at most 0.06 µg/mL; in experiment [4] (setting [16]), at most 0.06 µg/mL; in [5], at most 0.06 µg/mL; in experiment [6] (Without Tween-80, 48 hr), 0.5 µg/mL (≈ 0.541 µM). In addition, the “CLSI QC Range (MIC)” value in [2] is “(0.25-1)^1 μg/mL”; in experiment [3], 0.5 to 4 µg/mL; in experiment [3] (listed as Amph. B), “(0.5-4)^1 μg/mL”.
Take `CC[C@H](C)[C@@H]1NC(=O)[C@@H]2CCCN2C(=O)[C@H](Cc2cccc(-c3ccc(N4CCN(C(C)C)CC4)cc3)c2)N(C)C(=O)[C@H](Cc2ccccc2)NC(=O)[C@H](C(C)C)N(C)C(=O)[C@@H]([C@@H](C)CC)OC(=O)[C@H](C(C)(C)O)N(C)C(=O)[C@H](CC(C)C)NC(=O)[C@H](C(C)C)N(C)C1=O` [Compound 25] (cyclo(F[X1]PI[NMeV]L[NMeVal(β-OH)][Hmp(2R,3S)][NMeV])): the MIC in [1] stood at 1 µg/mL (≈ 0.767 µM); in [7], 0.15 µg/mL (≈ 0.115 µM); in experiment [8] (Aspergillus fumigatus, ATCC13073, 48 h, RPMI plus 0.002% Tween-80, read-out: MIC), 0.06 µg/mL; in experiment [8] (setting [17]), 0.06 µg/mL; in [9] (48 h, RPMI plus 0.002% Tween-80, read-out: MIC) it was 0.12 µg/mL; in [11] (Aspergillus niger, ATCC16888, 48 h, RPMI plus 0.002% Tween-80, read-out: MIC), 0.015 µg/mL. Also, the MIC was 0.015 µg/mL in experiment [11] (setting [17]); 0.06 µg/mL in [12] (Aspergillus fumigatus, MMX5944, 48 h, RPMI plus 0.002% Tween-80, read-out: MIC); 0.06 µg/mL in [12] (setting [17]); 0.12 µg/mL in [13] (setting [18]); 0.06 µg/mL in experiment [4] (72 hour, RPMI plus 0.002% Tween-80); 0.06 µg/mL in experiment [4] (setting [15]). The minimum inhibitory concentration (MIC) in experiment [4] (setting [16]) is 0.015 µg/mL; in [5], 0.015 µg/mL; in [6] (setting [18]), 0.12 µg/mL; in experiment [6] (Aspergillus fumigatus, 48 h, Without Tween-80, read-out: MIC), 1 µg/mL (≈ 0.767 µM); in experiment [6] (Without Tween-80, 48 hr), 1 µg/mL (≈ 0.767 µM); in experiment [14] (ATCC22019, RPMI plus 0.002% Tween-80), 0.03 µg/mL. Besides, in experiment [14] (ATCC22019, Without Tween-80), the MIC is 1 µg/mL (≈ 0.767 µM). The minimal effective concentration in [8] (Aspergillus fumigatus, ATCC13073, 48 h, RPMI plus 0.002% Tween-80, read-out: MEC) is 0.015 µg/mL; in experiment [9] (setting [17]), 0.03 µg/mL; in experiment [10], 0.008 µg/mL; in experiment [11] (Aspergillus niger, ATCC16888, 48 h, RPMI plus 0.002% Tween-80, read-out: MEC), 0.015 µg/mL; in [12] (Aspergillus fumigatus, MMX5944, 48 h, RPMI plus 0.002% Tween-80), 0.015 µg/mL; in [13] (Aspergillus fumigatus, 48 h, RPMI plus 0.002% Tween-80), 0.06 µg/mL. Moreover, the minimal effective concentration in [6] (Aspergillus fumigatus, 48 h, RPMI plus 0.002% Tween-80, read-out: MEC) came to 0.03 µg/mL; in experiment [6] (Aspergillus fumigatus, 48 h, Without Tween-80, read-out: MEC), 0.5 µg/mL. The MEC in experiment [13] (setting [17]) was 0.06 µg/mL; in experiment [6] (Without Tween-80, 48 hr), 1/1 μg/mL.
